Assays:
Type in all cases: cell-based
[1] = test system: 30 clinical isolates of E. coli, K. pneumoniae, E. cloacae, P. mirabilis, and C. freundii; assay: Macro dilution reference method, clinical isolates (visual growth after 16-20 hours)
Procedure: A total of 90 isolates-antibiotics combinations were tested. • a) All strains were cultured onto 5% sheep blood agar (Hylabs, Israel), following overnight incubation, colonies were harvested and suspended in Phosphate Buffer Saline (PBS, Sigma-Aldrich). […] 1 ml was discarded from the last tube in each set of tubes. • g) For each serial dilutions set, two controls were added. As a negative control, a tube with 2 ml of CAMHB. […] The rest of the sample was further incubated for 16-20 hours and then was visually evaluated for growth.

E. coli [2] = assay: Rapid AST from positive blood culture by FM 1-43 staining, flow cytometry and SIR; details: positive blood culture strain, 2-4 hours antibiotic exposure
Procedure: (§1) In general, the method includes; blood culture centrifugation, bacterial antimicrobial exposure for 2 to 4 hours, bacteria staining with a single fluorescence dye followed by a flow cytometric measurement, and mathematical analysis.
(§2) 31 positive blood cultures were obtained from Sheba Medical Center (Ramat-Gan, Israel) and tested for antimicrobial susceptibility with gentamicin and ampicillin antibiotics (Sigma-Aldrich, USA). […] As a positive control, a tube with bacterial sample solution (a) without antimicrobial agent. • h) All tubes were incubated at 37° C. • i) 2-4 hours from incubation initiation, 200 μl from each tube were transferred into a fresh tube, dyed with 2 μl of Synaptogreen or FM 1-43 (Sigma-Aldrich; Molecular Probes, respectively) and measured by a flow cytometer. The rest of the sample was further incubated for 16-20 hours and then was visually evaluated for growth.
(§3) In order to quantify the influence of a certain antimicrobial exposure we define the spectral intensity ratio (SIR) as follows: […]
(§4) The MIC is calculated by plotting the spectral intensity ratio (SIR) as a function of the antimicrobial concentration and approximating it to a step function in the form of […]

[3] = test system: 31 positive blood cultures (E. coli, K. pneumonia, A. baummanii, P. mirabilis, E. cloacae, Aeromonass spp., K. oxytoca); assay: Macro dilution reference method, positive blood cultures (visual growth after 16-20 hours); details: 31 strains from positive blood cultures
Procedure: 31 positive blood cultures were obtained from Sheba Medical Center (Ramat-Gan, Israel) and tested for antimicrobial susceptibility with gentamicin and ampicillin antibiotics (Sigma-Aldrich, USA). A total of 62 positive blood samples-antibiotics combinations were tested. • a) Positive blood samples were received from Sheba Medical Center, 2 ml of each sample were centrifuged for 15 min at 24×g and Supernatants were diluted 1:1000 with Cation-Adjusted Mueller Hinton Broth (CAMHB). • b) Antimicrobial stock solutions were prepared according to CLSI recommendations, and were diluted in CAMHB, to a concentration which was 2 fold higher from the highest concentration recommended for each antimicrobial combination (“Class II Special Controls Guidance Document: Antimicrobial Susceptibility Test (AST) Systems”, Aug. 28, 2009, FDA). • c) For each sample/antimicrobial combination, a set of tubes was prepared for which 1 ml of CAMHB medium was added, except for the first tube. • d) To each first tube of the set, 2 ml from the antimicrobial stock solution (b) was dispensed. • e) From the first tube a serial dilutions of 2 folds were prepared by transferring 1 ml of the solution to the next tube until the lowest required concentration by CLSI. 1 ml was discarded from the last tube in each set of tubes. • f) To each tube in the set, 1 ml of bacterial sample solution (a) was added. • g) For each serial dilutions set, two controls were added. As a negative control, a tube with 2 ml of CAMHB. As a positive control, a tube with bacterial sample solution (a) without antimicrobial agent. • h) All tubes were incubated at 37° C. • i) 2-4 hours from incubation initiation, 200 μl from each tube were transferred into a fresh tube, dyed with 2 μl of Synaptogreen or FM 1-43 (Sigma-Aldrich; Molecular Probes, respectively) and measured by a flow cytometer. The rest of the sample was further incubated for 16-20 hours and then was visually evaluated for growth.
62 samples (31 positive blood cultures and 2 antibiotics combination) were analyzed in triplicates. Each sample was measured by the flow cytometer and the MIC was calculated using the spectral intensity ratio (SIR) calculation and step function estimation. The bacteria identified within the samples were; E. coli (15 samples), K. pneumonia (6 samples), A. baummanii (4 samples), P. mirabilis (2 samples), E. cloacae (2 samples), Aeromonass spp. (1 sample), and K. oxytoca (1 sample).
Tables 1 and 2 present the results of the positive blood sample experiment using the macro dilution as the reference method. […] There are no errors as defined by “Class II Special Controls Guidance Document: Antimicrobial Susceptibility Test (AST) Systems,” Aug. 28, 2009, FDA.

K. pneumonia = assay: Rapid AST/MIC from positive blood culture by FM 1-43 staining, flow cytometry and spectral intensity ratio (SIR); details: 2-4 hours antibiotic exposure
Procedure: as §1, §2, §3, §4

E. coli [4] = assay: Rapid AST/MIC from clinical isolates by FM 1-43 staining, flow cytometry and SIR; details: clinical isolate, 2-4 hours antibiotic treatment
Procedure: (§5) Our method includes bacterial antimicrobial treatment for 2 to 4 hours, bacteria staining with a single fluorescence dye followed by a flow cytometric measurement, and mathematical analysis. The following paragraphs describe the method in details.
(§6) A total of 90 isolates-antibiotics combinations were tested. • a) All strains were cultured onto 5% sheep blood agar (Hylabs, Israel), following overnight incubation, colonies were harvested and suspended in Phosphate Buffer Saline (PBS, Sigma-Aldrich). […] The rest of the sample was further incubated for 16-20 hours and then was visually evaluated for growth.
(§7) In order to quantify the influence of a certain antimicrobial treatment, we define the spectral intensity ratio (SIR) as follows: […]
(§8) The MIC is calculated by plotting the spectral intensity ratio (SIR) as a function of the antimicrobial concentration and approximating it to a step function in the form of
(§9) Where a, b, and c are parameters and erf is the error function. The parameters are used to approximate the measured SIR to a step function; a is a scaling parameter, b determines the step slope, and c is the MIC value. […]

C. freundii = assay: Rapid AST from clinical isolates by FM 1-43 staining, flow cytometry and SIR; details: clinical isolate, up to 32 μg/ml
Procedure: as §5, §6, §7, §8, §9

E. coli [5] = assay: Flow cytometry SIR/SDL dead/live analysis of FM1-43 stained bacteria under Gentamycin exposure; design: key to SIR: SIR = ratio of mean FL-3 (610 nm) to FL-1 (530 nm) fluorescence; details: for Dead % of This Plot / Live % of This Plot / SDL SIR * D/L / SIR: 120 minutes
Procedure: In this Example, E. coli bacteria samples were incubated with Gentamycin in series dilution from 0 to 32 μgr/ml for 120 minutes. Post incubation the samples were stained with the dye FM1-43 and immediately measured by flow cytometry analysis on light scatter analysis for gating the bacteria and with fluorescence filters: λ1=530/30 and λ2=616/16 nm to analyze the SIR. Moreover gating of the Dead and live bacteria were determined.
From such instant flow-cytometry analysis the SIR and SDL values are evaluated. While performing the same analysis over the whole antibiotic concentrations dilution series the SIR and SDL values were extracted to the concentration series, the data is summarized in Table 5. In Table 5, mean FL1-H and FL3-H is the average of the individual points in the bacteria gated population, i.e. of all measured bacteria. In other words, Fl-1 and FL-3 are merely the fluorescence intensity of each event (bacteria) per a certain fluorescence filter. By referring to FL-1 or FL-3 this means that the mean (average) values of all the events is calculated in the dot plot. FL-1 it is at 530 (±15) nm and FL-3 is at 610 (±10) nm. SIR, is the ratio of FL-3/FL-1. […] So, in order to obtain SIR all that is needed are the FL-3 and FL-1 mean values of the bacterial population in the dot plot. […] By using a predetermined gates, the number of dead and live bacteria can be counted, and then the ratio of dead to live can be calculated and multiplied by the SIR to obtain SDL. The gates are combination of FL-1 and FL-3 and predetermined by control live sample. Plotting SIR, SDL, and DL versus antibiotic concentration is represented in FIG. 15 as (labeled as “SIR”, “SDL”, and “DL”). In FIG. 15, SIR, SDL, and DL are all normalized to the maximum value in the series (column)/dataset and then to 100.
From the data, we can determine the MIC by approximating the MIC as a function of antimicrobial concentration to an error function (FIG. 16) of the following type;
The MIC is the value of the parameter c or a function of it. Specifically, the MIC gets the value of “c”. The value of “c” is the middle of the step in a regular step function of where the step function equals to zero when its values are normalized between −1 to 1.

E. coli [6] = assay: Micro dilution susceptibility test performed in parallel; details: after 12 hours of incubation
[7] = 120 minutes incubation, FIG. 17A
[8] = 120 minutes incubation, FIG. 17B
[9] = Gentamycin 1 microg/ml (sub-MIC), listed as Gentamycin
[10] = Gentamycin 1 microg/ml (sub-MIC), listed as gentamycin
[11] = Gentamycin 8 microg/ml (over-MIC), listed as Gentamycin
[12] = Gentamycin 8 microg/ml (over-MIC), listed as gentamycin

With `CC1(C)S[C@@H]2[C@H](NC(=O)[C@H](N)c3ccccc3)C(=O)N2[C@H]1C(=O)O` [Ampicillin, ampicillin] the “Reference Method Susceptibilities I (number of strains)” value (shortened to “Reference Method Susceptibilities I”) [1] was 5, the “Reference Method Susceptibilities R (number of strains)” value (“Reference Method Susceptibilities R” below) [1] was 9 and the “Reference Method Susceptibilities S (number of strains)” value (from here on “Reference Method Susceptibilities S”) [1] was 16. For the same molecule, the “susceptibility by SIR method” value (E. coli [2]) was “resistant”, the “Reference Method Susceptibilities I” value [3] was 0 and the “Reference Method Susceptibilities R” value [3] was 26. For the same molecule, the “Reference Method Susceptibilities S” value [3] was 5 and the MIC (K. pneumonia; Klebsiella pneumoniae, read-out: MIC (SIR approximated to a step function)) was 4 µg/mL.
gentamicin was tested, and the “MIC (SIR approximated to a step function)” value (E. coli [4]) was 2 µg/mL, the “Reference Method Susceptibilities I” value [1] was 4 and the “Reference Method Susceptibilities R” value [1] was 5. The “Reference Method Susceptibilities S” value [1] was 21, the “Reference Method Susceptibilities I” value [3] was 0 and the “Reference Method Susceptibilities R” value [3] was 10. For the same molecule, the “Reference Method Susceptibilities S” value [3] was 21, the “susceptibility by SIR method” value (C. freundii) was “resistant” and the “MIC from SIR error function fit (c rounded up to power of 2)” value (E. coli [5]; [7]) was 8 μgr/ml. For the same molecule, the “value of c, error function fit of measured SIR” value (E. coli [5]; [7]) was 4.63 μgr/ml, the “MIC from SDL error function fit (c rounded up to power of 2)” value (E. coli [5]; [8]) was 8 μgr/ml and the “value of c, error function fit of measured SDL” value (E. coli [5]; [8]) was 5.38 μgr/ml. For the same molecule, the “Dead % of This Plot” value (E. coli [5]; Gentamycin 0.25 microg/ml) was 2.07%, the “Live % of This Plot” value (E. coli [5]; Gentamycin 0.25 microg/ml) was 97.89% and the “SDL SIR * D/L” value (E. coli [5]; Gentamycin 0.25 microg/ml) was 0.026. The SIR (E. coli [5]; Gentamycin 0.25 microg/ml) was 1.223, the “Dead % of This Plot” value (E. coli [5]; Gentamycin 0.5 microg/ml) was 2.34% and the “Live % of This Plot” value (E. coli [5]; Gentamycin 0.5 microg/ml) was 97.65%. The “SDL SIR * D/L” value (E. coli [5]; Gentamycin 0.5 microg/ml) was 0.030, the SIR (E. coli [5]; Gentamycin 0.5 microg/ml) was 1.238 and the “Dead % of This Plot” value (E. coli [5]; [9]) was 4.64%. The “Live % of This Plot” value (E. coli [5]; [9]) was 95.29%, the “Dead % of This Plot” value (E. coli [5]; [10]) was 4.6% and the “Live % of This Plot” value (E. coli [5]; [10]) was 95.2%. The “SDL SIR * D/L” value (E. coli [5]; Gentamycin 1 microg/ml) was 0.070, the SIR (E. coli [5]; Gentamycin 1 microg/ml) was 1.437 and the “Dead % of This Plot” value (E. coli [5]; Gentamycin 2 microg/ml) was 6.46%. The “Live % of This Plot” value (E. coli [5]; Gentamycin 2 microg/ml) was 93.52%, the “SDL SIR * D/L” value (E. coli [5]; Gentamycin 2 microg/ml) was 0.099 and the SIR (E. coli [5]; Gentamycin 2 microg/ml) was 1.426. The “Dead % of This Plot” value (E. coli [5]; Gentamycin 4 microg/ml) was 9.86%, the “Live % of This Plot” value (E. coli [5]; Gentamycin 4 microg/ml) was 90.09% and the “SDL SIR * D/L” value (E. coli [5]; Gentamycin 4 microg/ml) was 0.188. For the same molecule, the SIR (E. coli [5]; Gentamycin 4 microg/ml) was 1.718, the “Dead % of This Plot” value (E. coli [5]; [11]) was 18.68% and the “Live % of This Plot” value (E. coli [5]; [11]) was 81.28%. For the same molecule, the “Dead % of This Plot” value (E. coli [5]; [12]) was 18%, the “Live % of This Plot” value (E. coli [5]; [12]) was 81% and the “SDL SIR * D/L” value (E. coli [5]; Gentamycin 8 microg/ml) was 0.492. For the same molecule, the SIR (E. coli [5]; Gentamycin 8 microg/ml) was 2.141, the “Dead % of This Plot” value (E. coli [5]; Gentamycin 16 microg/ml) was 27.28% and the “Live % of This Plot” value (E. coli [5]; Gentamycin 16 microg/ml) was 72.67%. For the same molecule, the “SDL SIR * D/L” value (E. coli [5]; Gentamycin 16 microg/ml) was 0.893, the SIR (E. coli [5]; Gentamycin 16 microg/ml) was 2.379 and the “Dead % of This Plot” value (E. coli [5]; Gentamycin 32 microg/ml) was 21.03%. For the same molecule, the “Live % of This Plot” value (E. coli [5]; Gentamycin 32 microg/ml) was 78.95%, the “SDL SIR * D/L” value (E. coli [5]; Gentamycin 32 microg/ml) was 0.622 and the SIR (E. coli [5]; Gentamycin 32 microg/ml) was 2.336. The “MIC, micro dilution susceptibility test” value (E. coli [6]) was 8 μgr/ml and the “MIC (SIR approximated to a step function)” value (K. pneumonia) was 1 µg/mL.

Source: patent US10995358B2, “Rapid antibiotic susceptibility test using membrane fluorescence staining and spectral intensity ratio improved by flow cytometry dead to live population ratio” (POCARED Diagnostics LTD., priority 2017, dated 2021)
